Assays:
Assay in all cases: GRmax, 72 h; higher = less effect;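 note: breast cell lines in 384-well plates, nine doses across a 10^4 range, Dye Drop imaging of viable cells vs DMSO and time-zero plates, GR 0 means no net growth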
[1] = system: HCC38
[2] = system: HCC1806
[3] = system: UACC893
[4] = system: ZR751
[5] = system: SUM185PE
[6] = system: SUM44PE
[7] = system: EFM19
[8] = system: BT20
[9] = system: MDAMB453
[10] = system: HS578T
[11] = system: CAL851
[12] = system: HCC70

| SMILES | GRmax, 72 h [1] | GRmax, 72 h [2] | GRmax, 72 h [3] | GRmax, 72 h [4] | GRmax, 72 h [5] | GRmax, 72 h [6] | GRmax, 72 h [7] | GRmax, 72 h [8] | GRmax, 72 h [9] | GRmax, 72 h [10] | GRmax, 72 h [11] | GRmax, 72 h [12] |
| --- | --- | --- | --- | --- | --- | --- | --- | --- | --- | --- | --- | --- |
| COc1cc(N2CCN(C)CC2)ccc1Nc1ncc2c(n1)N(C)c1ccccc1C(=O)N2CC(F)(F)F [FMF-03-146-1] | 0.9 GR | 0.942 GR | 0.987 GR | 0.939 GR | 0.833 GR | 0.946 GR | 0.947 GR | 0.973 GR | 0.803 GR | 0.944 GR | 0.916 GR | 0.926 GR |
| CN1CC[C@H](c2c(O)cc(O)c3c(=O)cc(-c4ccccc4Cl)oc23)[C@H](O)C1 [Flavopiridol] (max 1 µM) | -0.448 GR | -0.568 GR | -0.464 GR | -0.353 GR | 0.155 GR | -0.573 GR | -0.21 GR | -0.639 GR | -0.188 GR | -0.256 GR | -0.223 GR | -0.811 GR |
| CC(C)n1nc(-c2ccc3oc(N)nc3c2)c2c(N)ncnc21 [INK128/MLN0128] (max 3.162 µM) | -0.0087 GR | 0.262 GR | -0.483 GR | -0.0856 GR | 0.139 GR | -0.523 GR | -0.128 GR | -0.0045 GR | -0.468 GR | -0.0708 GR | 0.016 GR | -0.162 GR |
| CC(C)NC[C@@H](C(=O)N1CCN(c2ncnc3c2[C@H](C)C[C@H]3O)CC1)c1ccc(Cl)cc1 [Ipatasertib/GDC0068] (max 10 µM) | 0.706 GR | 0.945 GR | -0.794 GR | 0.608 GR | 0.455 GR | -0.0416 GR | 0.066 GR | 0.102 GR | -0.155 GR | 0.442 GR | 0.471 GR | -0.262 GR |
| CN(C)C(=O)c1cc2cnc(Nc3ccc(N4CCNCC4)cn3)nc2n1C1CCCC1 [LEE011/Ribociclib] (max 10 µM) | 0.241 GR | 0.682 GR | 0.469 GR | 0.381 GR | 0.824 GR | 0.378 GR | 0.386 GR | 0.092 GR | 0.189 GR | 0.376 GR | 1.04 GR | 1.04 GR |
| CCNC(=O)c1noc(-c2cc(C(C)C)c(O)cc2O)c1-c1ccc(CN2CCOCC2)cc1 [Luminespib/NVP-AUY922] (max 1 µM) | -0.209 GR | -0.175 GR | -0.898 GR | 0.0576 GR | -0.103 GR | -0.483 GR | 0.0263 GR | -0.049 GR | -0.499 GR | -0.114 GR | -0.384 GR | -0.583 GR |
| CCOc1cc2ncc(C#N)c(Nc3ccc(OCc4ccccn4)c(Cl)c3)c2cc1NC(=O)/C=C/CN(C)C [Neratinib/HKI272] (max 3.162 µM) | 0.457 GR | -0.0883 GR | -0.901 GR | 0.709 GR | 0.25 GR | -0.202 GR | 0.718 GR | 0.303 GR | -0.322 GR | -0.161 GR | -0.326 GR | 0.0595 GR |
| O=C(c1cc(Cc2n[nH]c(=O)c3ccccc23)ccc1F)N1CCN(C(=O)C2CC2)CC1 [Olaparib/AZD2281] (max 10 µM) | 0.425 GR | 0.489 GR | 0.549 GR | 0.801 GR | 0.75 GR | 0.803 GR | 0.63 GR | 0.606 GR | -0.0358 GR | 0.444 GR | 0.387 GR | 0.719 GR |
| CC(=O)O[C@H]1C(=O)[C@@]2(C)[C@H]([C@H](OC(=O)c3ccccc3)[C@]3(O)C[C@H](OC(=O)[C@H](O)[C@@H](NC(=O)c4ccccc4)c4ccccc4)C(C)=C1C3(C)C)[C@]1(OC(C)=O)CO[C@@H]1C[C@@H]2O [Paclitaxel] (max 1 µM) | -0.308 GR | -0.211 GR | -0.384 GR | -0.0835 GR | 0.298 GR | -0.474 GR | -0.639 GR | -0.576 GR | 0.0356 GR | -0.375 GR | -0.346 GR | -0.506 GR |
| CS(=O)(=O)N1CCN(Cc2cc3nc(-c4cccc5[nH]ncc45)nc(N4CCOCC4)c3s2)CC1 [Pictilisib/GDC0941] (max 10 µM) | 0.357 GR | 0.194 GR | -0.878 GR | -0.0806 GR | 0.0142 GR | -0.205 GR | -0.154 GR | -0.165 GR | -0.374 GR | 0.0345 GR | -0.0252 GR | -0.597 GR |
| O=C1NC(=NCc2cccs2)SC1=Cc1ccc2ncccc2c1 [R0-3306] (max 10 µM) | -0.239 GR | -0.112 GR | 0.376 GR | 0.51 GR | 0.827 GR | -0.266 GR | 0.0987 GR | -0.274 GR | 0.0452 GR | -0.0503 GR | -0.0866 GR | -0.204 GR |
| CNCc1ccc(-c2[nH]c3cc(F)cc4c3c2CCNC4=O)cc1 [Rucaparib] (max 10 µM) | 0.652 GR | 0.68 GR | 0.502 GR | 0.835 GR | 0.772 GR | 0.867 GR | 0.96 GR | 0.875 GR | 0.18 GR | 0.683 GR | 0.44 GR | 1.06 GR |
| CC1(N)CCN(c2cnc(-c3cccc(Cl)c3Cl)c(N)n2)CC1 [SHP099] (max 10 µM) | 0.523 GR | 0.988 GR | 0.703 GR | 0.829 GR | 0.457 GR | 0.807 GR | 0.992 GR | 0.914 GR | 0.726 GR | 0.632 GR | 0.632 GR | 0.708 GR |
| CN1CCN(CCOc2cc(OC3CCOCC3)c3c(Nc4c(Cl)ccc5c4OCO5)ncnc3c2)CC1 [Saracatinib/AZD0530] (max 10 µM) | 0.614 GR | 0.221 GR | 0.141 GR | 0.328 GR | 0.419 GR | 0.381 GR | 0.139 GR | 0.31 GR | 0.393 GR | 0.189 GR | 0.116 GR | -0.172 GR |
| Cc1cc(C(C)Nc2ccccc2)c2nc(N3CCOCC3)cc(=O)n2c1 (stereo not given) [TGX221] (max 10 µM) | 0.952 GR | 0.982 GR | 0.939 GR | 0.239 GR | 0.509 GR | 1.04 GR | 0.843 GR | 1.02 GR | 0.828 GR | 0.709 GR | 0.99 GR | 0.0049 GR |
| CN(C)C/C=C/C(=O)Nc1ccc(C(=O)Nc2cccc(Nc3ncc(Cl)c(-c4c[nH]c5ccccc45)n3)c2)cc1 [THZ1] (max 1 µM) | -0.568 GR | -0.658 GR | -0.525 GR | -0.163 GR | -0.219 GR | -0.292 GR | -0.293 GR | -0.385 GR | -0.256 GR | -0.371 GR | -0.549 GR | -0.944 GR |
| CN(C)C/C=C/C(=O)Nc1ccc(C(=O)N2CCC[C@@H](Nc3ncc(Cl)c(-c4c[nH]c5ccccc45)n3)C2)cc1 [THZ531] (max 1 µM) | -0.337 GR | -0.489 GR | -0.417 GR | -0.242 GR | -0.175 GR | -0.203 GR | -0.557 GR | 0.637 GR | -0.294 GR | -0.246 GR | -0.196 GR | -0.933 GR |
| CN(C)C/C=C/C(=O)Nc1ccc(C(=O)Nc2cccc(Nc3cc(-c4c[nH]c5ccccc45)ncn3)c2)cc1 [THZ-P1-2] (max 10 µM) | -0.509 GR | -0.467 GR | -0.761 GR | 0.262 GR | -0.295 GR | -0.518 GR | 0.124 GR | -0.623 GR | -0.706 GR | 0.92 GR | 0.468 GR | -0.837 GR |
| Cc1nc(-c2cn3c(n2)-c2ccc(-c4cnn(C(C)(C)C(N)=O)c4)cc2OCC3)n(C(C)C)n1 [Taselisib/GDC0032] (max 10 µM) | 0.0628 GR | -0.0297 GR | -0.898 GR | -0.0193 GR | -0.367 GR | -0.392 GR | -0.143 GR | -0.375 GR | -0.635 GR | -0.0179 GR | -0.0171 GR | -0.685 GR |
| O=C1NC(=O)[C@@H](c2cn3c4c(cccc24)CCC3)[C@@H]1c1c[nH]c2ccccc12 [Tivantinib/ARQ197] (max 10 µM) | -0.27 GR | -0.218 GR | -0.248 GR | -0.0475 GR | 0.169 GR | -0.338 GR | -0.592 GR | -0.488 GR | -0.0719 GR | -0.32 GR | -0.326 GR | -0.566 GR |
| Nc1ccc(-c2ccc3ncc4ccc(=O)n(-c5cccc(C(F)(F)F)c5)c4c3c2)cn1 [Torin2] (max 1 µM) | -0.211 GR | -0.14 GR | -0.828 GR | -0.0631 GR | -0.0832 GR | -0.556 GR | -0.0622 GR | -0.289 GR | -0.814 GR | -0.217 GR | -0.154 GR | -0.555 GR |
| CC[C@@H]1C(=O)N(C)c2cnc(Nc3ccc(C(=O)N[C@H]4CC[C@H](N5CCN(CC6CC6)CC5)CC4)cc3OC)nc2N1C(C)C [Volasertib/BI6727] (max 1 µM) | -0.26 GR | -0.132 GR | -0.424 GR | -0.17 GR | 0.28 GR | -0.288 GR | -0.577 GR | -0.534 GR | -0.201 GR | -0.312 GR | -0.289 GR | -0.205 GR |
| O=C(CCCCCCC(=O)Nc1ccccc1)NO [Vorinostat] (max 10 µM) | -0.285 GR | 0.0178 GR | -0.337 GR | -0.0452 GR | 0.222 GR | -0.427 GR | -0.248 GR | -0.113 GR | -0.608 GR | -0.169 GR | -0.183 GR | -0.476 GR |
| C=CC(=O)Nc1ccc(C(=O)Nc2[nH]nc3c2CN(C(=O)N[C@H](CN(C)C)c2ccccc2)C3(C)C)cc1 [YKL-5-124] (max 10 µM) | -0.39 GR | -0.469 GR | -0.626 GR | 0.13 GR | -0.0052 GR | -0.448 GR | 0.0431 GR | -0.153 GR | -0.503 GR | -0.445 GR | -0.592 GR | -0.835 GR |
| CN1CCN(C(=O)c2ccc3cc(CCNc4ncnc5ccc(C#N)cc45)ccc3c2)CC1 [senexin b] (max 10 µM) | 0.614 GR | 0.817 GR | 0.71 GR | 0.845 GR | 0.444 GR | 0.309 GR | 0.629 GR | 0.175 GR | 0.148 GR | 0.765 GR | 0.615 GR | 0.458 GR |

— the supplement of paper PMC9663587
